Results published in patent publication US7776903B2, “Pharmaceutical preparations containing substituted 2,5-diaminomethyl-1H-pyrroles” (priority 2002, dated 2010).
Where two headings read alike, the source gives them in different places.

Tests used:
[1] = target: T1, 5-HT uptake (Rattus norvegicus, UniProt P31652); assay: 5-HT uptake inhibition in rat brain synaptosomes (medulla and pons); assay type: biochemical; conditions: conc. 10 (unit not given), [3H]-5-HT, 5 minutes
T1 construct: Synaptosomes from rat brain regions were freshly isolated; from tissue; host or cells: rat brain synaptosomes (medulla and pons)
T1 sequence (P31652 whole entry): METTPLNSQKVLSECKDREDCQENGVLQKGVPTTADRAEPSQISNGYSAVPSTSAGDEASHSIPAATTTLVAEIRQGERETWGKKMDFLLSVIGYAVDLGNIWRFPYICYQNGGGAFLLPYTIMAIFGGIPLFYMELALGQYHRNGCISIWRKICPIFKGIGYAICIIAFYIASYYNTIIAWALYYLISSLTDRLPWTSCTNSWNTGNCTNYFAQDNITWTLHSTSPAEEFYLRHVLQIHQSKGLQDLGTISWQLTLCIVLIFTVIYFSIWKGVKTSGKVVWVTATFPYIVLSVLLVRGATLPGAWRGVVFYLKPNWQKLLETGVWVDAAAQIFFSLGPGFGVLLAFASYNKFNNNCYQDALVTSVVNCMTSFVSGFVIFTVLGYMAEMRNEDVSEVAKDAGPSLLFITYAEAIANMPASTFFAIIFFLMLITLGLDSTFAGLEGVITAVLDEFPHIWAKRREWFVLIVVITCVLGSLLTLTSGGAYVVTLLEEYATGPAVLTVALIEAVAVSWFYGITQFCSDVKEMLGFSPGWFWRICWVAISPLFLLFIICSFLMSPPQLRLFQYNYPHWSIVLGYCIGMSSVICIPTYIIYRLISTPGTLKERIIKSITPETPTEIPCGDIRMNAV
Source text: (§1) c) Method for Determining Noradrenalin and the 5-HT Uptake Inhibition:
(§2) Synaptosomes from rat brain regions were freshly isolated for in vitro studies, as described in the publication “The isolation of nerve endings from brain” by E. G. Gray and V. P. Whittaker, J. Anatomy 96, pages 79-88, 1962. The corresponding literature description is hereby introduced as a reference and is deemed to be part of the disclosure.
(§3) The tissue (hypothalamus for the determination of noradrenalin uptake inhibition and medulla and pons for the determination of 5-HT uptake inhibition) was homogenised in ice-cooled 0.32 M sucrose (100 mg of tissue/1 mL) in a glass homogeniser with teflon pestle using five complete up and down strokes at 840 revolutions/minute.
(§4) The homogenate was centrifuged at 4° C. for 10 minutes at 1000 g. After subsequent centrifugation at 17000 g for 55 minutes, the synaptosomes (P2 fraction) were obtained, which were resuspended in 0.32 M glucose (0.5 mL/100 mg of original weight).
(§5) The particular uptake was measured in a 96-well microtitre plate. The volume was 250 μl and the incubation proceeded at room temperature (approx. 20-25° C.) under an O2 atmosphere.
(§6) The incubation time was 7.5 minutes for [^3H]-NA and 5 minutes for [^3H]-5-HT. The 96 samples were then filtered through a Unifilter GF/B® microtitre plate (Packard) and washed with […] of incubated buffer using a “Brabdel MPXR1-96T Cell-Harvester”. The Unifilter GF/B plate was dried for 1 hour at 55° C. The plate was then sealed with a Back seal® (Packard) and 35 μl of scintillation fluid were added per well (Ultima gold®, Packard). After sealing with a top seal® (Packard) and establishment of equilibrium (around 5 hours), radioactivity was determined in a “Trilux 1450 Microbeta” (Wallac).
(§7) The quantity of protein used in the above determination corresponded to the values known from the literature, as for example described in “Protein measurement with the folin phenol reagent”, Lowry et al., J. Biol. Chem., 193, 265-275, 1951. A detailed description of the method may also be found in the literature, for example in M. Ch. Frink, H.-H. Hennies, W. Engelberger, M. Haurand and B. Wilffert (1996) Arzneim.-Forsch./Drug Res. 46 (III), 11, 1029-1036. The corresponding literature descriptions are hereby introduced as a reference and are deemed to be part of the disclosure.

[2] = target: T2, NA transporter (Rattus norvegicus, UniProt Q63380); assay: Noradrenalin uptake inhibition in rat brain synaptosomes (hypothalamus); assay type: biochemical; conditions: conc. 10 (unit not given), [3H]-NA, 7.5 minutes
T2 construct: Synaptosomes from rat brain regions were freshly isolated; from tissue; host or cells: rat brain synaptosomes (hypothalamus)
T2 sequence (Q63380 1-617): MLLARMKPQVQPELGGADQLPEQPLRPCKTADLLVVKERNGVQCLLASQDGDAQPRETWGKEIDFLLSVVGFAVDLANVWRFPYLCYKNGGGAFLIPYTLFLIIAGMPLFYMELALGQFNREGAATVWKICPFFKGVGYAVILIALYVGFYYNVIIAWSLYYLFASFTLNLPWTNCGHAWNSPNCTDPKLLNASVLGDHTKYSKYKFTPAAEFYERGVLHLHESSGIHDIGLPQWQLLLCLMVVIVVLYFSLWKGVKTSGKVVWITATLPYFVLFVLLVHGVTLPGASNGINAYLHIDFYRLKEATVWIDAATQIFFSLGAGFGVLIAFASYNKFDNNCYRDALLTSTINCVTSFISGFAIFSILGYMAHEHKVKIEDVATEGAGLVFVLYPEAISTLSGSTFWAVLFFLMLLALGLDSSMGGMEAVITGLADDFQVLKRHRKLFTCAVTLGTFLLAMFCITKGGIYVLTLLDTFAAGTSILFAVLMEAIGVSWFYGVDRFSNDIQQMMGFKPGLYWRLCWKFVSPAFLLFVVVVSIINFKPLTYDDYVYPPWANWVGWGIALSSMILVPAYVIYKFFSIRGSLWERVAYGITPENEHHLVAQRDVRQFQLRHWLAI
Source text: as §1, §2, §3, §4, §5, §6
The following characteristics were determined for the NA transporter: NA uptake: Km=0.32±0.11 μM
as §7

[3] = target: human μ opiate receptor (Homo sapiens, UniProt P35372); assay: Human μ opiate receptor binding assay with [3H]-naloxone, CHO-K1 membrane preparation; conditions: for inhibition at 1 µM: read-out: Human ORm Nal inhibition [%]
Chain of human μ opiate receptor (P35372 whole entry): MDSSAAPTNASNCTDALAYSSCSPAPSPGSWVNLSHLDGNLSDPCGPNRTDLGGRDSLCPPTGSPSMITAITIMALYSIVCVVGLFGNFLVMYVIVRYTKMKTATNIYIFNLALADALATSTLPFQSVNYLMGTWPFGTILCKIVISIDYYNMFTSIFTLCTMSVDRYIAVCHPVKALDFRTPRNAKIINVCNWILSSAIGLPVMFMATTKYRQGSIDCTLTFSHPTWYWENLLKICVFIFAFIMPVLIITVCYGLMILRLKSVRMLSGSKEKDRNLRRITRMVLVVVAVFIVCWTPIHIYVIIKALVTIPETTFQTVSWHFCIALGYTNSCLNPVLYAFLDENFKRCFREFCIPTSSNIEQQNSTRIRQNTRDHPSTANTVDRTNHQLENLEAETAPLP
Experimental: b) Method for Determining Affinity for the Human μ opiate receptor
Receptor affinity for the human μ opiate receptor is determined in a homogeneous batch in microtitre plates. To this end, dilution series of the particular substituted 2,5-diaminomethyl-1H-pyrrole to be tested were incubated at room temperature for 90 minutes in a total volume of 250 μl with a receptor membrane preparation (15-40 μg of protein per 250 μl of incubation batch) of CHO-K1 cells, which express the human μ opiate receptor (RB-HOM receptor membrane preparation from NEN, Zaventem, Belgium) in the presence of 1 nmol/l of the radioactive ligand [^3H]-naloxone (NET719, from NEN, Zaventem, Belgium) and of 1 mg of WGA-SPA beads (wheat germ agglutinin SPA beads from Amersham/Pharmacia, Freiburg, Germany). The incubation buffer used is 50 mmol/l tris-HCl supplemented with 0.05 wt. % of sodium azide and with 0.06 wt. % of bovine serum albumin. 25 μmol/l of naloxone were additionally added to determine nonspecific binding. Once the ninety minute incubation time had elapsed, the microtitre plates were centrifuged off for 20 minutes at 1000 g and the radioactivity measured in a β-Counter (Microbeta-Trilux, from PerkinElmer Wallac, Freiburg, Germany. The percentage displacement of the radioactive ligand from its binding to the human μ opiate receptor was determined at a concentration of the substances to be tested of 1 μmol/l and stated as percentage inhibition of specific binding. On the basis of the percentage displacement by different concentrations of the compounds to be tested of the general formula I, IC50 inhibition concentrations which bring about 50% displacement of the radioactive ligand were calculated. Ki values for the test substances were obtained by conversion using the Cheng-Prusoff equation.

[4] = target: T3, ORL-1 receptor (Homo sapiens, UniProt P41146); assay: ORL-1 receptor binding assay with 3H-nociceptin/Orphanin FQ, membranes of recombinant CHO-ORL1 cells; conditions: 3H-nociceptin/Orphanin FQ 0.5 nM
T3 construct: expressed in transfected cells; host or cells: CHO (CHO-ORL1)
T3 sequence (P41146 whole entry): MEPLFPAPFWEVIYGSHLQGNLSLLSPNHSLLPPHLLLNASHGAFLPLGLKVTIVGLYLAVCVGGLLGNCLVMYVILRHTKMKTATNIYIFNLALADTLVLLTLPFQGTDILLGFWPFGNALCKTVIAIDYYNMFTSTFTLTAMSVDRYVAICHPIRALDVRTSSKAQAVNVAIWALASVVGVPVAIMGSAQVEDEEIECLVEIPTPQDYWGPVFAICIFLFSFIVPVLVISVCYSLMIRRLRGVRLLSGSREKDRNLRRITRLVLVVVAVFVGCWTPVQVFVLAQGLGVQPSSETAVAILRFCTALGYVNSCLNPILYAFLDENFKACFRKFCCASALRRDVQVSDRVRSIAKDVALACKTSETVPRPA
Experimental: a) Method for Determining Affinity for the ORL-1 Receptor
The affinity of the particular substituted 2,5-diaminomethyl-1H-pyrrole of the general formula I for the ORL-1 receptor was determined in a receptor binding assay with ^3H-nociceptin/Orphanin FQ with membranes of recombinant CHO-ORL1 cells, as described by Ardati et al. in Mol. Pharmacol., 51, 1997, pages 816-824. The corresponding literature description is hereby introduced as a reference and is deemed to be part of the disclosure.
The concentration of ^3H-nociceptin/Orphanin FQ in these tests was 0.5 nM. The binding assays were in each case performed with 20 μg of membrane protein per 200 μl batch in 50 mM Hepes, pH 7.4, 10 mM MgCl2 and 1 mM EDTA. Binding to the ORL1 receptor was determined using 1 mg portions of WGA-SPA Beads (Amersham-Pharmacia, Freiburg, Germany), by one hour's incubation of the batch at room temperature (approx. 20-25° C.) and subsequent measurement in a Trilux scintillation counter (Wallac, Finland).

[5] = [3H]-naloxone, from IC50 by Cheng-Prusoff equation, read-out: Human ORm Nal Ki

| SMILES | Rat 5-HT uptake inhibition [%] conc. 10 [1] [%] | Rat noradrenalin uptake inhibition [%], conc. 10 [2] [%] | Ki [3] [nM] | inhibition at 1 µM [3] [%] | Ki [3, 5] [nM] | Ki [4] [nM] | Human ORL1 inhibition [%] ([4]; test concentration not given) |
| --- | --- | --- | --- | --- | --- | --- | --- |
| CN(C)C(c1ccccc1Br)c1ccc(CN2CCCCC2)n1C.Cl.Cl (stereo not shown) [Example 4, [(2-Bromo-phenyl)-(1-methyl-5-piperidin-1-ylmethyl-1H-pyrrol-2-yl)-methyl]-dimethyl-amine dihydrochloride] | 57 |  |  |  |  |  |  |
| COc1ccccc1C(c1ccc(CN2CCCCC2)n1C)N(C)C.Cl.Cl (stereo not shown) [Example 1, [(2-Methoxyphenyl)-(1-methyl-5-piperidin-1-ylmethyl-1H-pyrrol-2-yl)-methyl]-dimethyl-amine dihydrochloride] | 77 | 63 |  |  |  |  |  |
| CCOC(=O)C(c1ccc(CN(CC)CC)n1C)N1CCOCC1.Cl.Cl (stereo not shown) [Example 10, (5-Diethylaminomethyl-1-methyl-1H-pyrrol-2-yl)-morpholin-4-yl-acetic acid ethyl ester dihydrochloride] | 28 |  | 70 | 84 |  |  |  |
| Cc1ccccc1C(c1ccc(CN2CCCCC2)n1C)N(C)C.Cl.Cl (stereo not shown) [Example 3, Dimethyl-[(1-methyl-5-piperidin-1-ylmethyl-1H-pyrrol-2-yl)-o-tolyl-methyl]-amine dihydrochloride] | 30 |  |  |  |  |  |  |
| CCOC(=O)C(c1ccc(CN2CCOCC2)n1C)N1CCCC1.Cl.Cl (stereo not shown) [Example 13, (1-Methyl-5-morpholin-4-ylmethyl-1H-pyrrol-2-yl)-pyrrolidin-1-yl-acetic acid ethyl ester dihydrochloride] | 28 |  |  |  |  |  |  |
| CN(C)C(c1ccc(Br)cc1)c1ccc(CN2CCCCC2)n1C.Cl.Cl (stereo not shown) [Example 5, [(4-Bromo-phenyl)-(1-methyl-5-piperidin-1-ylmethyl-1H-pyrrol-2-yl)-methyl]-dimethyl-amine dihydrochloride] | 39 | 91 |  | 52 | 860 |  |  |
| CCOC(=O)C(c1ccc(CN2CCCCC2)n1C)N1CCOCC1.Cl.Cl (stereo not shown) [Example 9, (1-Methyl-5-piperidin-1-ylmethyl-1H-pyrrol-2-yl)-morpholin-4-yl-acetic acid ethyl eastr dihydrochloride] | 26 |  |  |  |  |  |  |
| CN(C)C(c1ccc(F)cc1)c1ccc(CN2CCOCC2)n1C.Cl.Cl (stereo not shown) [Example 6, [(4-Fluoro-phenyl)-(1-methyl-5-morpholin-4-ylmethyl-1H-pyrrol-2-yl)-methyl]-dimethyl-amine dihydrochloride] | 53 | 42 |  | 21 | 500 |  |  |
| CCN(CC)Cc1ccc(C(c2ccccc2)N(C)C)n1C.Cl.Cl (stereo not shown) [Example 7, [5-(Dimethylamino-phenyl-methyl)-1-methyl-1H-pyrrol-2-ylmethyl]-diethyl-amine dihydrochloride] | 44 | 52 |  | 50 |  | 420 | 42 |
| COc1ccccc1C(c1ccc(CN2CCCC2)n1C)N(C)C.Cl.Cl (stereo not shown) [Example 2, [(2-Methoxyphenyl)-(1-methyl-5-pyrrolidin-1-ylmethyl-1H-pyrrol-2-yl)-methyl]-dimethyl-amine dihydrochloride] | 76 | 65 |  | 25 |  |  |  |
| CCOC(=O)C(c1ccc(CN2CCCCC2)n1C)N1CCCCC1 (stereo not shown) [Example 8, (1-Methyl-5-piperidin-1-ylmethyl-1H-pyrrol-2-yl)-piperidin-1-yl-acetic acid ethyl ester drochloride] |  | 33 |  | 69 | 220 |  |  |
